From ChEMBL document CHEMBL2016572, “Second-generation histone deacetylase 6 inhibitors enhance the immunosuppressive effects of Foxp3+ T-regulatory cells” (J Med Chem, 2012)
Active and inactive are the calls of the source. No cut-off for these calls is given here.

Key:
[1] = species on record: Homo sapiens; test: Selectivity ratio of IC50 for human recombinant HDAC1 to IC50 for human recombinant HDAC6
[2] = biological target: T1, Protein deacetylase HDAC6 (Homo sapiens, UniProt Q9UBN7); test: Inhibition of human recombinant HDAC6 using RHKKAc peptide as substrate incubated for 5 to mins prior to substrate addition measured after 2 hrs
T1 sequence (Q9UBN7 whole entry): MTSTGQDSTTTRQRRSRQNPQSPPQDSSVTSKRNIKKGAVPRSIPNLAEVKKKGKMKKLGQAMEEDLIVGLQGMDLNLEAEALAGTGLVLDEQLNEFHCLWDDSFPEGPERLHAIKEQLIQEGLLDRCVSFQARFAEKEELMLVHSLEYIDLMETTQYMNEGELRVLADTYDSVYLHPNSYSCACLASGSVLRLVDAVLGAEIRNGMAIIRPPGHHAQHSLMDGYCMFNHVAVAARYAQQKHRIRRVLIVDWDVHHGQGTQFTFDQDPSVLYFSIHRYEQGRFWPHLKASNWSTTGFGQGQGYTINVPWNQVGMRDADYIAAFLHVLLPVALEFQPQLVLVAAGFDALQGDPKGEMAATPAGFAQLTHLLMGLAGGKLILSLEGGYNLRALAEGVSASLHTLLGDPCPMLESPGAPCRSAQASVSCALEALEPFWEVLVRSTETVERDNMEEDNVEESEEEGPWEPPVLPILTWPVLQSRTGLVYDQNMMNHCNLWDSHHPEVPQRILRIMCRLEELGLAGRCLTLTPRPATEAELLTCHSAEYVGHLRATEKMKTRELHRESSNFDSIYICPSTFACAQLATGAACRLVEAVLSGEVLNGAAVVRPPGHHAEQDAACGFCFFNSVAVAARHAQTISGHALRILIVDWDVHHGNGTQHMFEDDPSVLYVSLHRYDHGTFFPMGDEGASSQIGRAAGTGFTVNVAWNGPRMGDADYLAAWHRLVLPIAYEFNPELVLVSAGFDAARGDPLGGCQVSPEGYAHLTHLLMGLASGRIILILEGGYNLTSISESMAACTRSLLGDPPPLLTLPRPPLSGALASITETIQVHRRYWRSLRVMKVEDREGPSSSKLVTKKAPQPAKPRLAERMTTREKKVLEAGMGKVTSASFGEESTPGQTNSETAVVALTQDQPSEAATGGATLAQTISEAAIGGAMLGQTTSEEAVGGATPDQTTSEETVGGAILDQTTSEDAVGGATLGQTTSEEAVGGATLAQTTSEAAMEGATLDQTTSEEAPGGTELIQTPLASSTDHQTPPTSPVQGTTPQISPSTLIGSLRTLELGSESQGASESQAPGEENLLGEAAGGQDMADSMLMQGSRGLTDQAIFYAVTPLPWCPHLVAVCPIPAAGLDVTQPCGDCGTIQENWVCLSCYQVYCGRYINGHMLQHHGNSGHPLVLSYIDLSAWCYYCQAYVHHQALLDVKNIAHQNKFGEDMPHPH

[3] = biological target: Histone deacetylase 1 (Homo sapiens, UniProt Q13547); test: Inhibition of human recombinant HDAC1 using RHKKAc peptide as substrate incubated for 5 to mins prior to substrate addition measured after 2 hrs
Sequence of Histone deacetylase 1 (Q13547 whole entry): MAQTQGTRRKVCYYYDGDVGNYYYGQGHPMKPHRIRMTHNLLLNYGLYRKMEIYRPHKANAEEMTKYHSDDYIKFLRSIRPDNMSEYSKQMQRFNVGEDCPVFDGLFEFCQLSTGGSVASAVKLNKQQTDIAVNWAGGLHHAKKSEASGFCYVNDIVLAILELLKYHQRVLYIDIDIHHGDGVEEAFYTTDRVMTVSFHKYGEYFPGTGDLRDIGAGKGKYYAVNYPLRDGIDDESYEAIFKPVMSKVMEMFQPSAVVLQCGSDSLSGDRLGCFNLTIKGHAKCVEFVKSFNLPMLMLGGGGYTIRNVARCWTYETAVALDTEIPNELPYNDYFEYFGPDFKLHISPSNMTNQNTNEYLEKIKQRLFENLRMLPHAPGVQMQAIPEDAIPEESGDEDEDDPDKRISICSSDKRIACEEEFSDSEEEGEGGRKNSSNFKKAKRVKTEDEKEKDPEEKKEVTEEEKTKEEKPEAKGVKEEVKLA

[4] = system: Mus musculus; test: Immunosuppressive activity against HDAC6 deficient CD4+CD25- CFSE-labelled effector T cells xenografted in RAG-/- mouse assessed as inhibition of FoxP3+,CD4+CD25+ T regulatory cells-mediated proliferation at 1 mg/kg, ip administered qd for 7 days measured on day 8 by flow cytometry; type: functional, organism-based; set-up: dose 1 mg/kg; settings: T-cell
[5] = Immunosuppressive activity against C57BL/6 mouse CFSE-labelled effector T cells assessed as inhibition of T regulatory cell-mediated proliferation at Treg:Teff ratio of 1:4 at 0.5 uM after 3 to 4 days by flow cytometry (reference value: 74.2%); type: functional; settings: C57BL/6, T-cell
[6] = Immunosuppressive activity against C57BL/6 mouse CFSE-labelled effector T cells assessed as Treg suppression of Teffector proliferation AUC at 0.5 uM after 3 to 4 days by flow cytometry relative to control; type: functional, T-cell
[7] = system: T-cell; test: Immunosuppressive activity against C57BL/6 mouse CFSE-labelled effector T cells assessed as inhibition of T regulatory cell-mediated cell division at Treg:Teff ratio of 1:2 at 0.5 uM after 3 to 4 days by flow cytometry (reference value: 64.8%); type: functional; settings: C57BL/6, T-cell
[8] = Immunosuppressive activity against C57BL/6 mouse CFSE-labelled effector T cells assessed as inhibition of T regulatory cell-mediated proliferation at Treg:Teff ratio of 1:16 at 0.5 uM after 3 to 4 days by flow cytometry (reference value: 86.9%); type: functional; settings: C57BL/6, T-cell
[9] = system: T-cell; test: Immunosuppressive activity against C57BL/6 mouse CFSE-labelled effector T cells assessed as inhibition of T regulatory cell-mediated cell division at Treg:Teff ratio of 1:1 at 0.5 uM after 3 to 4 days by flow cytometry (reference value: 42.2%); type: functional; settings: C57BL/6, T-cell
[10] = Immunosuppressive activity against C57BL/6 mouse CFSE-labelled effector T cells assessed as inhibition of T regulatory cell-mediated proliferation at Treg:Teff ratio of 1:8 at 0.5 uM after 3 to 4 days by flow cytometry (reference value: […]); type: functional; settings: C57BL/6, T-cell
[11] = Immunosuppressive activity against C57BL/6 mouse CFSE-labelled effector T cells assessed as Treg suppression of Teffector proliferation AUC at […] after 3 to 4 days by flow cytometry relative to control; type: functional, T-cell
[12] = system: T-cell; test: Immunosuppressive activity against C57BL/6 mouse CFSE-labelled effector T cells assessed as inhibition of T regulatory cells-mediated proliferation at 0.25 uM after 3 to 4 days by flow cytometry relative to control; type: functional, cell-based
[13] = Immunosuppressive activity against C57BL/6 mouse CFSE-labelled effector T cells assessed as Treg suppression of Teffector proliferation AUC at 0.25 uM after 3 to 4 days by flow cytometry relative to control; type: functional, T-cell
[14] = Immunosuppressive activity against C57BL/6 mouse CFSE-labelled effector T cells assessed as inhibition of T regulatory cells-mediated proliferation at Treg:Teff ratio of 1:16 at 1 uM after 3 to 4 days by flow cytometry (reference value: 86.9%); type: functional; settings: C57BL/6, T-cell
[15] = Immunosuppressive activity against C57BL/6 mouse CFSE-labelled effector T cells assessed as inhibition of T regulatory cells-mediated proliferation at Treg:Teff ratio of 1:2 at 1 uM after 3 to 4 days by flow cytometry (reference value: 64.8%); type: functional; settings: C57BL/6, T-cell
[16] = Immunosuppressive activity against C57BL/6 mouse CFSE-labelled effector T cells assessed as inhibition of T regulatory cell-mediated proliferation at Treg:Teff ratio of 1:4 at 1 uM after 3 to 4 days by flow cytometry (reference value: 74.2%); type: functional; settings: C57BL/6, T-cell
[17] = Immunosuppressive activity against C57BL/6 mouse CFSE-labelled effector T cells assessed as inhibition of T regulatory cells-mediated proliferation at Treg:Teff ratio of 1:1 at 1 uM after 3 to 4 days by flow cytometry (reference value: 42.2%); type: functional; settings: C57BL/6, T-cell
[18] = system: T-cell; test: Immunosuppressive activity against C57BL/6 mouse CFSE-labelled effector T cells assessed as inhibition of T regulatory cells-mediated proliferation at 1 uM after 3 to 4 days by flow cytometry relative to control; type: functional, cell-based
[19] = Immunosuppressive activity against C57BL/6 mouse CFSE-labelled effector T cells assessed as Treg suppression of Teffector proliferation AUC at 1 uM after 3 to 4 days by flow cytometry relative to control; type: functional, T-cell

SMILES | Ratio IC50 [1] | IC50 [2] [nM] | IC50 [3] [nM] | further results
Cc1cc(C)c2c3c(n(Cc4ccc(C(=O)NO)cc4)c2c1)CCN(C)C3 | 268 | 38.4 | 10300 | –
O=C(NO)c1ccc(Cn2c3c(c4ccccc42)CN(Cc2ccncc2)CC3)cc1 | 4710 | 0.582 | 2740 | inhibition [4]: Active; inhibition at 0.5 µM [5]: 62.3%; Ratio [6]: 2.13; inhibition at 0.5 µM [7]: 51.6%; inhibition at 0.5 µM [8]: 72.8%; inhibition at 0.5 µM [9]: 37.8%; inhibition at 0.5 µM [10]: 69.7%
CN1CCc2c(c3cc(C(C)(C)C)ccc3n2Cc2ccc(C(=O)NO)cc2)C1 | 626 | 22.5 | 14100 | –
O=C(NO)c1ccc(Cn2c3c(c4ccccc42)CN(Cc2ccccc2)CC3)cc1 | 7150 | 1.44 | 10300 | –
O=C(NO)c1ccc(Cn2c3c(c4ccccc42)CCNC3)cc1 | 3900 | 2.49 | 9700 | –
CC(C)N1CCc2c(c3ccccc3n2Cc2ccc(C(=O)NO)cc2)C1 | 1750 | 8.96 | 15700 | –
NC(=O)CN1CCc2c(c3ccccc3n2Cc2ccc(C(=O)NO)cc2)C1 | 4980 | 0.799 | 3980 | Ratio [11]: 1.69
O=C(NO)c1ccc(Cn2c3c(c4ccccc42)CNCC3)cc1 | 2500 | 6.56 | 16400 | Ratio [11]: 1.76
CC(C)(C)OC(=O)N1CCc2c(c3ccccc3n2Cc2ccc(C(=O)NO)cc2)C1 | 3830 | 2.25 | 8620 | –
CN1CCc2c(c3cc(Br)ccc3n2Cc2ccc(C(=O)NO)cc2)C1 | 606 | 0.704 | 427 | inhibition [4]: Active; inhibition [12]: Active; Ratio [13]: 1.87
Cc1ccc2c3c(n(Cc4ccc(C(=O)NO)cc4)c2c1)CCN(C)C3 | 352 | 11.5 | 4050 | –
CN1CCc2c(c3ccccc3n2Cc2ccc(C(=O)NO)cc2)C1 [TUBASTATIN A] | – | – | – | inhibition at 1 µM [14]: 75.4%; inhibition at 1 µM [15]: 44.4%; inhibition at 1 µM [16]: 58.7%; inhibition at 1 µM [17]: 37.8%
CCN1CCc2c(c3ccccc3n2Cc2ccc(C(=O)NO)cc2)C1 | 3410 | 2.99 | 10200 | –
Cc1cccc2c3c(n(Cc4ccc(C(=O)NO)cc4)c12)CCN(C)C3 | 636 | 34.7 | 22100 | –
COc1cccc(CN2CCc3c(c4ccccc4n3Cc3ccc(C(=O)NO)cc3)C2)c1 | 1750 | 2.96 | 5190 | Ratio [6]: 1.9
NC(=O)CCN1CCc2c(c3ccccc3n2Cc2ccc(C(=O)NO)cc2)C1 | 3510 | 0.459 | 1610 | –
CN1CCc2c(n(Cc3ccc(C(=O)NO)cc3)c3ccccc23)C1 | 3700 | 1.4 | – | inhibition [18]: Active; Ratio [19]: 1.63
Cc1ccc2c(c1)c1c(n2Cc2ccc(C(=O)NO)cc2)CCN(C)C1 | 422 | 4.9 | 2070 | –
NC(=O)CCCN1CCc2c(c3ccccc3n2Cc2ccc(C(=O)NO)cc2)C1 | 1830 | 4.06 | 7450 | –
CN1CCc2c(c3cc(Cl)ccc3n2Cc2ccc(C(=O)NO)cc2)C1 | 1000 | 1.02 | 1020 | –
O=C(NO)c1ccc(Cn2c3c(c4ccccc42)CCN(Cc2ccccc2)C3)cc1 | 4950 | 0.872 | 4320 | –
COc1ccc(CN2CCc3c(c4ccccc4n3Cc3ccc(C(=O)NO)cc3)C2)cc1 | 1520 | 3.05 | 4640 | –
COc1ccc2c(c1)c1c(n2Cc2ccc(C(=O)NO)cc2)CCN(C)C1 | 614 | 3.06 | 1880 | –
C=CCN1CCc2c(c3ccccc3n2Cc2ccc(C(=O)NO)cc2)C1 | 5990 | 0.972 | 5820 | Ratio [6]: 1.65
